Reference: publication PMC10223284, “Category-Based Toxicokinetic Evaluations of Data-Poor Per- and Polyfluoroalkyl Substances (PFAS) using Gas Chromatography Coupled with Mass Spectrometry” (Toxics, 2023)
Several values for one entry are separate records, joined by “and”; a condition that tells them apart may be missing. Equal values may be shown once.

System: human plasma
Assay: Ultracentrifugation (UC) plasma protein binding assay, fraction unbound in plasma (fup)
Details: for Aqueous Fraction, Run-specific Avg / Aqueous Fraction: amount measured in aqueous fraction after ultracentrifugation, unit not given; for Aqueous Fraction, Run-specific Avg: run average; for fup: human plasma, 10 μM, ultracentrifugation, 37 °C; for Fup.Med: median fraction unbound in plasma; for Fup.Med / Fup.point: UC assay Level4; for Fup.point: point estimate of fraction unbound in plasma; for Aqueous Fraction: replicates A, B, C

SMILES | Aqueous Fraction, Run-specific Avg | fup | Fup.Med | Fup.point | Aqueous Fraction | Fraction Unbound (fu), replicates A, B, C (single replicate of one UC run (aqueous fraction / Time 5 hr))
NC(=O)C(F)(F)C(F)(F)C(F)(F)F [Heptafluorobutyramide] | 5392.01 | 0.6030 | 0.566 | 0.601 |  | 
OCC(F)(F)C(F)(F)C(F)(F)C(F)(F)C(F)(F)C(F)(F)C(F)(F)C(F)(F)CO [1H,1H,10H,10H-Perfluorodecane-1,10-diol] | 3361.30 | 0.0047 | 0.00408 | 0.00496 | 3710.68 and 3362.14 and 3011.07 | 0.005168 and 0.005301 and 0.003775 and 0.006151 and 0.003351
OCCC(F)(F)C(F)(F)C(F)(F)C(F)(F)F [4:2 Fluorotelomer alcohol] | 2164.31 | 0.1680 | 0.235 | 0.231 | 1744.82 and 3486.44 and 1261.67 | 
